# From patent publication US12077503B2, “Substituted cyclic amides and their use as herbicides” (FMC CORPORATION, priority 2015, dated 2024)
# How the values were obtained:
# Assay type in all cases: in vivo
# [1] = system: sedge, umbrella (small-flower umbrella sedge, Cyperus difformis); test: Test B flooded paddy test; conditions: Cyperus difformis, 250 g ai/ha, Flood; 0 to 100 scale where 0 is no effect and 100 is complete control; read-out: Sedge, Umbrella plant response rating
# In short: (§1)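 Flooding to 3 cm over soil accompanied treatment, which consisted of adding compound to the standing water around 2-leaf plants; depth was then maintained. Visual assessment versus controls followed at 13 to 15 d (scale 0–100, 0 meaning no effect).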
# [2] = system: barnyardgrass (Echinochloa crus-galli); test: Test B flooded paddy test; conditions: Echinochloa crus-galli, 250 g ai/ha, Flood; 0 to 100 scale where 0 is no effect and 100 is complete control; read-out: Barnyardgrass plant response rating
# In short: as §1
# [3] = system: rice (Oryra sativa); test: Test B flooded paddy test; conditions: Oryza sativa, 250 g ai/ha, Flood; 0 to 100 scale where 0 is no effect and 100 is complete control; read-out: Rice plant response rating
# In short: as §1
# [4] = system: ducksalad (Heteranthera limosa); test: Test B flooded paddy test; conditions: Heteranthera limosa, 250 g ai/ha, Flood; 0 to 100 scale where 0 is no effect and 100 is complete control; read-out: Ducksalad plant response rating
# In short: as §1
# [5] = system: wheat (Triticum aestivum); test: Test A postemergence; conditions: Triticum aestivum, post-emergence, 240 h
# In short: (§2)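 Compounds were formulated in a non-phytotoxic solvent mixture with surfactant and applied as a preemergence directed soil spray after seeding, or sprayed postemergence over plants 2 to 10 cm tall at the one- to two-leaf stage. Evaluation after about 10 d compared treated with untreated controls, using a scale from 0 (no effect) to 100 (complete control).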
# [6] = system: ryegrass, Italian (Italian ryegrass, Lolium multiflorum); test: Test A postemergence; conditions: Lolium multiflorum, post-emergence, 240 h
# In short: as §2
# [7] = system: barnyardgrass (Echinochloa crus-galli); test: Test A postemergence; conditions: Echinochloa crus-galli, post-emergence, 240 h
# In short: as §2
# [8] = system: pigweed (Amaranthus retroflexus); test: Test A postemergence; conditions: Amaranthus retroflexus, post-emergence, 240 h
# In short: as §2
# [9] = system: blackgrass (Alopecurus myosuroides); test: Test A postemergence; conditions: Alopecurus myosuroides, post-emergence, 240 h
# In short: as §2
# [10] = system: ragweed (common ragweed, Ambrosia elatior); test: Test A postemergence; conditions: Ambrosia artemisiifolia, post-emergence, 240 h
# In short: as §2
# [11] = system: Kochia (Kochia scoparia); test: Test A postemergence; conditions: Bassia scoparia, post-emergence, 240 h
# In short: as §2
# [12] = system: giant foxtail (Setaria faberii); test: Test A postemergence; conditions: Setaria faberi, post-emergence, 240 h
# In short: as §2
# [13] = system: Galium (catchweed bedstraw, Galium aparine); test: Test A postemergence; conditions: Galium, post-emergence, 240 h
# In short: as §2
# [14] = system: corn (Zea mays); test: Test A postemergence; conditions: Zea mays, post-emergence, 240 h
# In short: as §2
# [15] = system: ryegrass, Italian (Italian ryegrass, Lolium multiflorum); test: Test A preemergence; conditions: Lolium multiflorum, pre-emergence, 240 h, 0 to 100 scale where 0 is no effect and 100 is complete control, read-out: Ryegrass, Italian plant response rating
# In short: as §2
# [16] = system: barnyardgrass (Echinochloa crus-galli); test: Test A preemergence; conditions: Echinochloa crus-galli, pre-emergence, 240 h, 0 to 100 scale where 0 is no effect and 100 is complete control, read-out: Barnyardgrass plant response rating
# In short: as §2
# [17] = system: pigweed (Amaranthus retroflexus); test: Test A preemergence; conditions: Amaranthus retroflexus, pre-emergence, 240 h, 0 to 100 scale where 0 is no effect and 100 is complete control, read-out: Pigweed plant response rating
# [18] = system: ragweed (common ragweed, Ambrosia elatior); test: Test A preemergence; conditions: Ambrosia artemisiifolia, pre-emergence, 240 h, 0 to 100 scale where 0 is no effect and 100 is complete control, read-out: Ragweed plant response rating
# In short: as §2
# [19] = system: Kochia (Kochia scoparia); test: Test A preemergence; conditions: Bassia scoparia, pre-emergence, 240 h, 0 to 100 scale where 0 is no effect and 100 is complete control, read-out: Kochia plant response rating
# In short: as §2
# [20] = system: giant foxtail (Setaria faberii); test: Test A preemergence; conditions: Setaria faberi, pre-emergence, 240 h, 0 to 100 scale where 0 is no effect and 100 is complete control, read-out: Foxtail, Giant plant response rating
# In short: as §2
# [21] = 125 g ai/ha, preemergence, approx. 10 d
smiles,measurement,setting,value
CN1C[C@H](c2csc3c2CCOC3)[C@@H](C(=O)Nc2ccc(F)c(F)c2F)C1=O [Compound 1077],pest or weed control at 250 g/ha,[1],0%
same,pest or weed control at 250 g/ha,[2],85%
same,pest or weed control at 250 g/ha,[3],15%
same,pest or weed control at 250 g/ha,[4],90%
same,plant injury at 125 g/ha,"[5]; 125 g ai/ha, postemergence, visual injury on 0 to 100 scale (0 no effect, 100 complete control), approx. 10 d, read-out: Wheat plant response rating",0%
same,plant injury at 31 g/ha,"[5]; Postemergence, 31 g ai/ha, visual injury after approx. 10 d, 0 to 100 scale, 0 no effect, 100 complete control, read-out: Plant response rating, Wheat",0%
same,pest or weed control at 125 g/ha,"[6]; 125 g ai/ha, postemergence, visual injury on 0 to 100 scale (0 no effect, 100 complete control), approx. 10 d, read-out: Ryegrass, Italian plant response rating",20%
same,pest or weed control at 31 g/ha,"[6]; Postemergence, 31 g ai/ha, visual injury after approx. 10 d, 0 to 100 scale, 0 no effect, 100 complete control, read-out: Plant response rating, Ryegrass, Italian",0%
same,pest or weed control at 125 g/ha,"[7]; 125 g ai/ha, postemergence, visual injury on 0 to 100 scale (0 no effect, 100 complete control), approx. 10 d, read-out: Barnyardgrass plant response rating",90%
same,pest or weed control at 31 g/ha,"[7]; Postemergence, 31 g ai/ha, visual injury after approx. 10 d, 0 to 100 scale, 0 no effect, 100 complete control, read-out: Plant response rating, Barnyardgrass",70%
same,pest or weed control at 125 g/ha,"[8]; 125 g ai/ha, postemergence, visual injury on 0 to 100 scale (0 no effect, 100 complete control), approx. 10 d, read-out: Pigweed plant response rating",0%
same,pest or weed control at 31 g/ha,"[8]; Postemergence, 31 g ai/ha, visual injury after approx. 10 d, 0 to 100 scale, 0 no effect, 100 complete control, read-out: Plant response rating, Pigweed",0%
same,pest or weed control at 125 g/ha,"[9]; 125 g ai/ha, postemergence, visual injury on 0 to 100 scale (0 no effect, 100 complete control), approx. 10 d, read-out: Blackgrass plant response rating",30%
same,pest or weed control at 31 g/ha,"[9]; Postemergence, 31 g ai/ha, visual injury after approx. 10 d, 0 to 100 scale, 0 no effect, 100 complete control, read-out: Plant response rating, Blackgrass",0%
same,pest or weed control at 125 g/ha,"[10]; 125 g ai/ha, postemergence, visual injury on 0 to 100 scale (0 no effect, 100 complete control), approx. 10 d, read-out: Ragweed plant response rating",0%
same,pest or weed control at 31 g/ha,"[10]; Postemergence, 31 g ai/ha, visual injury after approx. 10 d, 0 to 100 scale, 0 no effect, 100 complete control, read-out: Plant response rating, Ragweed",0%
same,pest or weed control at 125 g/ha,"[11]; 125 g ai/ha, postemergence, visual injury on 0 to 100 scale (0 no effect, 100 complete control), approx. 10 d, read-out: Kochia plant response rating",0%
same,pest or weed control at 31 g/ha,"[11]; Postemergence, 31 g ai/ha, visual injury after approx. 10 d, 0 to 100 scale, 0 no effect, 100 complete control, read-out: Plant response rating, Kochia",0%
same,pest or weed control at 125 g/ha,"[12]; 125 g ai/ha, postemergence, visual injury on 0 to 100 scale (0 no effect, 100 complete control), approx. 10 d, read-out: Foxtail, Giant plant response rating",90%
same,pest or weed control at 31 g/ha,"[12]; Postemergence, 31 g ai/ha, visual injury after approx. 10 d, 0 to 100 scale, 0 no effect, 100 complete control, read-out: Plant response rating, Foxtail, Giant",50%
same,pest or weed control at 125 g/ha,"[13]; 125 g ai/ha, postemergence, visual injury on 0 to 100 scale (0 no effect, 100 complete control), approx. 10 d, read-out: Galium plant response rating",70%
same,pest or weed control at 31 g/ha,"[13]; Postemergence, 31 g ai/ha, visual injury after approx. 10 d, 0 to 100 scale, 0 no effect, 100 complete control, read-out: Plant response rating, Galium",20%
same,plant injury at 125 g/ha,"[14]; 125 g ai/ha, postemergence, visual injury on 0 to 100 scale (0 no effect, 100 complete control), approx. 10 d, read-out: Corn plant response rating",10%
same,"Corn plant response rating (crop injury, 0 = no effect, 100 = complete kill) at 31 g/ha","[14]; Postemergence, 31 g ai/ha, visual injury after approx. 10 d, 0 to 100 scale, 0 no effect, 100 complete control",0%
same,pest or weed control at 31 g/ha,"[15]; 31 g ai/ha, Preemergence",0%
same,pest or weed control at 125 g/ha,[15]; [21],10%
same,pest or weed control at 31 g/ha,"[16]; 31 g ai/ha, Preemergence",80%
same,pest or weed control at 125 g/ha,[16]; [21],100%
same,pest or weed control at 31 g/ha,"[17]; 31 g ai/ha, Preemergence",0%
same,pest or weed control at 125 g/ha,[17]; [21],0%
same,pest or weed control at 31 g/ha,"[18]; 31 g ai/ha, Preemergence",0%
same,pest or weed control at 125 g/ha,[18]; [21],0%
same,pest or weed control at 31 g/ha,"[19]; 31 g ai/ha, Preemergence",0%
same,pest or weed control at 125 g/ha,[19]; [21],20%
same,pest or weed control at 31 g/ha,"[20]; 31 g ai/ha, Preemergence",100%
same,pest or weed control at 125 g/ha,[20]; [21],100%
